Where a name gives a salt, the structure may show the parent alone.
Key:
Male guinea-pigs = test: Anti-tussive activity (coughs by mechanical stimulation); format: in vivo; settings: intraperitoneal; for anti-tussive activity: dose of 5-40 mg/kg; for anti-tussive activity compared with codeine phosphate: vs codeine phosphate
Experimental: 2. Anti-tussive activity (cf. K. Takagi, H. Fukuda and K. Yano, Yakugakuzasshi, Vol. 80, page 1497, 1960)
Male guinea-pigs, weighing 350 to 450 g, were used. Coughs were caused by successive mechanical stimulations with whiskers, and anti-tussive effects were evaluated by all or none of the cough. The Test Compounds F and G were intraperitoneally injected.

male mice of ddN strain = test: Analgesic activity: D'Amour-Smith method (thermal pain); format: in vivo; settings: response time prolonged more than 100 %; for ED50: Mus musculus, sc; for Analgesic ED50 value, D'Amour-Smith method: s.c.
Experimental: i. D'Amour-Smith method (cf. F. E. D'Amour and D. L. Smith, J. Pharmacol., Vol. 72, page 74, 1941)
Thermal pain was induced by radiating heat light on the tail blacked with a black ink of male mice of ddN strain, weighing 9 to 12 g, using the modified apparatus of D'Amour-Smith. The analgesic ED50 -value was calculated from the number of positive animals showing the response time prolonged more than 100 % compared with each before value.

female mice = test: Analgesic activity: Phenylquinone method (chemical pain); format: in vivo, mice (ddN strain); settings: drugs given 30 minutes before i.p. phenylquinone; for ED50: Mus musculus, po
Experimental: ii. Phenylquinone method (cf. E. Siegmund, R. Cadmus and G. Lu, Proc. Soc. Exptl. Biol. Med., Vol. 95, page 729, 1957)
Chemical pain was induced by an intraperitoneal injection of 0.1 ml/10 g body weight of 0.03 % phenylquinone in 5 % aqueous ethanol in female mice, weighing 18 to 22 g of ddN strain. Drugs were given 30 minutes before challenge of phenylquinone.

With COc1ccc(CN2CCN([C@H](c3ccccc3)[C@@H](O)c3cccc(C)c3)CC2)cc1 (relative stereo) [Test Compound G, dl-erythro-1-(m-tolyl)-2-phenyl-2-[4-(p-methoxybenzyl)piperazine-1-yl]ethanol dihydrochloride] the anti-tussive activity (Male guinea-pigs) was “excellent anti-tussive activity in a dose of 5-40 mg/kg” and the “anti-tussive activity compared with codeine phosphate” value (Male guinea-pigs) was “comparable with that of codeine phosphate”.

With COc1ccc(CN2CCN([C@H](c3ccccc3Cl)[C@@H](O)c3ccccc3)CC2)cc1 (relative stereo) [Test Compound B, dl-Erythro-1-phenyl-2-(o-chlorophenyl)-2-[4-(p-methoxybenzyl)piperazin-1-yl]ethanol dihydrochloride] the ED50 (male mice of ddN strain) was 55.5 mg/kg and the ED50 (female mice) was 45.1 mg/kg.

Cc1c(N(C)C)c(=O)n(-c2ccccc2)n1C [compound 3, Aminopyrine, reference compound] was tested, and the ED50 (male mice of ddN strain) was 233 mg/kg and the ED50 (female mice) was 53.3 mg/kg.

In the case of COc1ccc(CN2CCN([C@H](c3ccccc3OC)[C@@H](O)c3ccccc3)CC2)cc1 (relative stereo) [Test Compound C, dl-Erythro-1-phenyl-2-(o-methoxyphenyl)-2-[4-(p-methoxybenzyl)piperazin-1-yl]ethanol dihydrochloride], the ED50 (male mice of ddN strain) is reported as 32.5 mg/kg and the ED50 (female mice) is reported as 28.6 mg/kg.

In the case of CN1CCN([C@H](c2ccccc2)[C@@H](O)c2ccccc2)CC1 (relative stereo) [compound 1, dl-Erythro-1,2-diphenyl-2-(4-methylpiperazin-1-yl)ethanol dihydrochloride, reference compound], the “Analgesic ED50 value, D'Amour-Smith method” value (male mice of ddN strain) is reported as “inactive”.

For COc1ccc(CN2CCN([C@H](c3ccccc3)[C@@H](O)c3ccc(Cl)cc3)CC2)cc1 (relative stereo) [Test Compound A, dl-Erythro-1-(p-chlorophenyl)-2-phenyl-2-[4-(p-methoxybenzyl)piperazin-1-yl]ethanol dihydrochloride], the ED50 (female mice) was 49.9 mg/kg.

COc1ccc(CN2CCN(C(c3ccccc3)C(O)c3ccccc3)CC2)cc1.Cl.Cl (stereo not drawn) [Test Compound F, d-Erythro-1,2-diphenyl-2-[4-(p-methoxybenzyl)piperazin-1-yl]ethanol dihydrochloride] was tested, and the “Analgesic ED50 value, D'Amour-Smith method” value (male mice of ddN strain) was 37.2 mg/kg, the “Analgesic ED50 value, Phenylquinone method” value (female mice; p.o.) was 63.2 mg/kg and the anti-tussive activity (Male guinea-pigs) was “excellent anti-tussive activity in a dose of 5-40 mg/kg”. For the same molecule, the “anti-tussive activity compared with codeine phosphate” value (Male guinea-pigs) was “more potent than that of codeine phosphate”.

With COc1ccc(CN2CCN([C@H](c3ccc(C)cc3)[C@@H](O)c3ccc(C)cc3)CC2)cc1 (relative stereo) [Test Compound D, dl-Erythro-1-(p-tolyl)-2-(p-tolyl)-2-[4-(p-methoxybenzyl)piperazin-1-yl]ethanol dihydrochloride] the ED50 (male mice of ddN strain) was 98.6 mg/kg and the ED50 (female mice) was 55.6 mg/kg.

Work on COc1ccc(CN2CCN([C@H](c3ccccc3C)[C@@H](O)c3ccccc3)CC2)cc1 (relative stereo) [Test Compound E, dl-Erythro-1-phenyl-2-(o-tolyl)-2-[4-(p-methoxybenzyl)-piperazin-1-yl]ethanol dihydrochloride] yielded an ED50 (male mice of ddN strain) of 65.2 mg/kg and an ED50 (female mice) of 30.2 mg/kg.

In the case of Cl.Cl.O=C(c1ccccc1)C(c1ccccc1)N1CCN(Cc2ccccc2)CC1 (racemic) [compound 2, dl-2-Phenyl-2-(4-benzylpiperazin-1-yl)acetophenone dihydrochloride, reference compound], the ED50 (male mice of ddN strain) is reported as > 320 mg/kg.

Source: patent US3988456A, “1,2-Diphenylethanolamine derivatives and their salts and the preparation thereof” (Dainippon Pharmaceutical Co., Ltd., priority 1974, dated 1976)
